This is an account of results in patent publication US12509463B2, “JAK inhibitor and preparation method therefor” (FELICAMED BIOTECHNOLOGY CO., LTD., priority 2019, dated 2025).

SMILES strings stand for the structures. pIC50: −log10 of the molar value.

A word on the pIC50: it is the negative decadic logarithm of the IC50, by convention in mol/L.

In one assay the test system is Canine PBMC cells. Put plainly: IL-2 and ConA induced proliferation of canine PBMC cells (flow cytometry, CD4+ population). Type of assay: cell-based. The note with it: Canis lupus familiaris, CFSE stained, IL-2 and concanavalin A, 120 h, MFI of CD4+ population, read-out: Cell IC50. The method, then:
Recombinant canine IL-2 (Cys147Ser) protein was purchased from R&D (Cat #1815-CL-020/CF). Canine CD4 Alexa Fluor 647-conjugated antibody was purchased from R&D […] A from Canavalia ensiformis (Jack bean) was purchased from Sigma (Cat #C5275-5MG). Oclacitinib maleate was purchased from AbMole Bioscience (Cat #M5827). PBMC cells were purchased from AllCells (Cat #DPB-002).
Flow cytometry is a technology used for detecting and measuring physical and chemical characteristics of populations of cells or particles. Canine PBMC was collected and stained with CFSE, and then the cells (1×10*5 cells/well) were inoculated onto a 96-well plate and incubated for 1 h in a 5% CO2 incubator at 37° C. […] Afterwards, cells were collected and stained with canine CD4 Alexa Fluor 647-conjugated antibodies.
Samples containing cells were resuspended by a staining buffer and injected into a flow cytometry. […] When cells passed through laser beam, a detector detected the scattered light of the cells or particles. The front detector detected forward scatter (FS), multiple detectors placed on the side detected side scatter (SS); and a fluorescence detector detected fluorescence emitted by the stained cells or particles. […]
CD4^+ was circled from lymphocyte populations. MFI of the CD4^+ population was calculated. […]
On the technique in general: Flow cytometry measures light scatter and fluorescence of single cells or particles in a stream.

The target of a further assay is T1, JAK1 (Homo sapiens, UniProt P23458).
T1 construct: purchased Thermo PV4774
T1 sequence (P23458 866-1154 limits assumed): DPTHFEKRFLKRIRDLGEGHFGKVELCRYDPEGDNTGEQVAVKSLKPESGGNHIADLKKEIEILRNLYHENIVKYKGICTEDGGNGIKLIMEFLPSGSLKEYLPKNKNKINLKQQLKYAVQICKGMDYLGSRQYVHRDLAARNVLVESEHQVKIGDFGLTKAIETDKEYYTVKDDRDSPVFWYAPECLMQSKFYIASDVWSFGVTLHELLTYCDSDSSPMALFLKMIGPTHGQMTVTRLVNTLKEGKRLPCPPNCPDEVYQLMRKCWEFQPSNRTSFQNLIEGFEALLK
Put plainly: JAK1 enzymology experiment (HTRF KinEASE-TK). It counts as biochemical. The note with it: JAK1 enzyme activity, 10 uM ATP, 19.76 nM JAk1, 30 min at 25° C., HTRF 665/615; read-out: Relative IC50. The method, then:
JAK1 is a protein tyrosine kinase, and purchased from Thermo (Cat #PV4774). ATP was purchased from Thermo […] was purchased from Selleck (Cat #55001), and HTRF KinEASE-TK kit was purchased from Cisbio (Cat #62TKOPEC).
HTRF®KinEASE™-TK was a universal method to measure activity of tyrosine kinase by a substrate and a universal detection system. The reaction was performed in a 384-well plate (Greiner, Cat #784075), and the total reaction system was 20 ul. The reaction system mainly included a 1× kinase buffer solution, 5 mM MgCl2, 0.625 mM EGTA, 0.06 uM SEB, 1 mM DTT, 0.01% Brij-35, 1 uM TK-Sub-biotin and 10 uM ATP. The compounds prepared in Examples 1-8 and the control compound Oclacitinib were continuously diluted by DMSO to 10 concentration points, and then 100 nl was transferred to a test plate. After 19.76 nM JAk1 was added, the reaction started, 30 min after reaction at 25° C., a detection reagent was added to terminate the reaction (0.25×TK Antibody, 62.5 nM Streptavidin-XL665). After standing for 60 min at room temperature, FRET signal was read out on a Spark 10M or an envision plate reader. (HTRF 665/615=665 nm signal value/615 nm signal value).
665/615 signal ratio was converted to percentage inhibition. […]

Assay [1] concerns pruritus caused by atopic dermatitis. The note with it: dogs, cited from earlier work.

On to `CNS(=O)(=O)C[C@H]1CC[C@H](N(C)c2ncnc3[nH]ccc23)CC1` [Oclacitinib], for which the pIC50 with Canine PBMC cells is 6.35. Moreover, the pIC50 on JAK1 is 7.89. Further, the “laboratory animals with more than 50% pruritus reaction relieved” value in assay [1] (on the 7th day of treatment) is “exceeding 70%”. Further, in assay [1] (oral 0.4-0.6 mg/kg twice a day), the “time to relieve itching” value is reported as at most 24 h; the “treatment of pruritus caused by atopic dermatitis” value is “safe and effective”.
